# Experimental data as given in patent publication EP4818172A1, “ASCORBIC ACID DERIVATIVES AND COSMETIC CONTAINING SAME” (Seiwa Kasei Co., Ltd., priority 2023, dated 2025).
# Columns and labels:
# [1] = Stability test -2: residual rate in cream of pH 7 or 9 stored at 50°C; format: physicochemical; conditions: cream with 4.0 W/W% derivative
# Protocol: (§1) For each of the samples of Synthesis Examples 9 to 32, (a) and (b) shown in Table 12 were each heated and mixed. After cooling, (c) shown in Table 12 was added to prepare a cream with a pH of 7 or 9. The sample was stored at 50°C for 4 weeks, and the residual rate was determined in the same manner as in Test Example 1 and evaluated according to the criteria described below. The odor and coloration were also evaluated according to the same method and criteria as in Test Example 1. The results regarding the residual rate are shown in Tables 13 and 14, and the results regarding the odor and coloration are shown in Tables 15 and 16.
# • ⊚: 95% or more • ○: 85% or more, less than 95% • ×: Less than 85% [Table 12]
# [2] = Stability test -2: odor and coloration of cream stored at 50°C; format: physicochemical; conditions: Test Example 2, cream stored at 50°C, total score of 10 panelists
# Protocol: (§2) For each of the samples of Synthesis Examples 1 to 6, 1% aqueous solutions were adjusted to pH 3, 5, 7, 8, and 9 with a dilute potassium hydroxide aqueous solution, and then placed in 50 mL screw tubes and • 2: Color changes compared to immediately after preparation. • 1: Strongly colored compared to immediately after preparation. Based on the results of the above evaluation, the following classification was made: • ○: Total score of 10 panelists is 25 or more • △: Total score of 10 panelists is 16-24 • ×: The total score of 10 panelists is 15 or less [Table 10]
# as §1
# [3] = test system: Normal human dermal fibroblasts; assay: Collagen production promoting effect (ELISA of free collagen in supernatant); format: cell-based; conditions: sample at 10 mM or less, cultured 48 hours, % of control group (100%), N=3
# Protocol: Normal human dermal fibroblasts were prepared in D-MEM containing 5% (v/v) fetal bovine serum to a cell density of 2.5 × 10^4 cell s /well, and then pre-incubated for 24 hours on a 96-well plate. After removing the medium, samples prepared to a predetermined concentration in D-MEM containing 5% (v/v) fetal bovine serum were added to each well and cultured for 48 hours. After the culture was completed, the amount of free collagen in the supernatant was quantified by ELISA. Measurements were performed in triplicate (N=3).
# The amount of collagen produced when the sample was measured at a concentration of 10 mM or less was compared with that of the control group, and the results (% values when the control group was set to 100%) are shown in Table 17 based on the following criteria. • <100%: ± • 100-140%: + • 140%<: ++ [Table 17]
# [4] = test system: Normal human dermal fibroblasts (NHDF); assay: Hyaluronic acid production promoting effect (ELISA of supernatant); format: cell-based; conditions: sample at 10 mM or less in serum-free D-MEM, cultured 48 hours, % of control group (100%), N=3
# Protocol: Normal human dermal fibroblasts (NHDF) were prepared in D-MEM containing 5% (v/v) fetal bovine serum to a cell density of 2.5 × 10^4 cells/well, and then pre-incubated on a 96-well plate for 24 hours. After removing the medium, samples prepared in serum-free D-MEM were added to each well and cultured for 48 hours. After the culture was completed, the amount of hyaluronic acid in the supernatant was quantified by ELISA. Measurements were performed in triplicate (N=3).
# The amount of hyaluronic acid produced when the sample was measured at a concentration of 10 mM or less was compared with that of the control group, and the results (% values when the control group is set to 100%) are shown in Tables 18 to 20 based on the following criteria. • <100%: ± • 100-120%: + • 120%<: ++ [Table 18]
# [5] = Stability test -1: residual rate of 1% aqueous solutions at pH 3 to 9 on storage; format: physicochemical; conditions: for Residual Rate After 2 weeks / Residual Rate After 4 weeks: 1% aqueous solution
# [6] = Stability test -1: odor and coloration scored by 10 panelists; format: physicochemical; conditions: Test Example 1, aqueous solution, total score of 10 panelists
# Protocol: as §2
Compound,"Residual Rate After 2 weeks ([1]; pH7, stored at 50°C)","Residual Rate After 4 weeks ([1]; pH7, stored at 50°C)","Residual Rate After 2 weeks ([1]; pH9, stored at 50°C)","Residual Rate After 4 weeks ([1]; pH9, stored at 50°C)",Odor After 4 weeks [2],Coloration After 2 weeks [2],Odor After 2 weeks [2],Coloration After 4 weeks [2],Hyaluronic acid production-promoting effect [4],other results
Bisglyceryl ascorbic acid [reference compound],,,,,,,,,,"Residual Rate After 2 weeks ([5]; pH3, stored at 50°C): ⊚; Residual Rate After 4 weeks ([5]; pH3, stored at 50°C): ⊚; Residual Rate After 2 weeks ([5]; pH5, stored at 50°C): ⊚; Residual Rate After 4 weeks ([5]; pH5, stored at 50°C): ⊚; Residual Rate After 2 weeks ([5]; pH7, stored at 50°C): ×; Residual Rate After 4 weeks ([5]; pH7, stored at 50°C): ×; Residual Rate After 2 weeks ([5]; pH8, stored at 50°C): ×; Residual Rate After 4 weeks ([5]; pH8, stored at 50°C): ×; Residual Rate After 2 weeks ([5]; pH9, stored at 50°C): ×; Residual Rate After 4 weeks ([5]; pH9, stored at 50°C): ×; Coloration After 2 weeks [6]: Δ; Odor After 2 weeks [6]: Δ; Coloration After 4 weeks [6]: Δ; Odor After 4 weeks [6]: Δ"
"CCCCCCCCCCCC(=O)OCC(OC(=O)CCCCCCCCCCC)C1OC(=O)C2=C1OCCCO2 (centres unmarked) [synthesis example 25, 5,6-O-dilauroyl-2,3-O-(1,3-propanediyl) ascorbic acid]",⊚ (95% or more),⊚ (95% or more),⊚ (95% or more),⊚ (95% or more),Δ,○ (Total score of 10 panelists is 25 or more),○ (Total score of 10 panelists is 25 or more),Δ,++ (120%<),
"CCCCCCCC(=O)OCC(OC(=O)CCCCCCC)C1OC(=O)C2=C1OCCCCO2 (centres unmarked) [synthetic example 12, 5,6-O-dioctanoyl-2,3-O-(1,4-butanediyl) ascorbic acid]",⊚ (95% or more),⊚ (95% or more),⊚ (95% or more),⊚ (95% or more),Δ,○ (Total score of 10 panelists is 25 or more),○ (Total score of 10 panelists is 25 or more),○ (Total score of 10 panelists is 25 or more),++ (120%<),Collagen production-promoting effect [3]: ++ (140%<)
O=C1O[C@H]([C@@H](O)CO)C(O)=C1O [Ascorbic acid],,,,,,,,,± (<100%),"Residual Rate After 2 weeks ([5]; pH3, stored at 50°C): ○; Residual Rate After 4 weeks ([5]; pH3, stored at 50°C): Δ; Residual Rate After 2 weeks ([5]; pH5, stored at 50°C): ○; Residual Rate After 4 weeks ([5]; pH5, stored at 50°C): ×; Residual Rate After 2 weeks ([5]; pH7, stored at 50°C): ×; Residual Rate After 4 weeks ([5]; pH7, stored at 50°C): ×; Residual Rate After 2 weeks ([5]; pH8, stored at 50°C): ×; Residual Rate After 4 weeks ([5]; pH8, stored at 50°C): ×; Residual Rate After 2 weeks ([5]; pH9, stored at 50°C): ×; Residual Rate After 4 weeks ([5]; pH9, stored at 50°C): ×; residual rate ([5]; Test Example 1, pH 7 to 9, stored at 50°C, after two weeks): less than 30%; Coloration After 2 weeks [6]: Δ; Odor After 2 weeks [6]: Δ; Coloration After 4 weeks [6]: × (The total score of 10 panelists is 15 or less); Odor After 4 weeks [6]: × (The total score of 10 panelists is 15 or less)"
"CCCCCCCCCCCCCCCC(=O)OCC(O)C1OC(=O)C2=C1OCCCO2 (centres unmarked) [synthesis example 26, 6-O-palmitoyl-2,3-O-(1,3-propanediyl) ascorbic acid]",⊚ (95% or more),⊚ (95% or more),⊚ (95% or more),"○ (85% or more, less than 95%)",Δ,○ (Total score of 10 panelists is 25 or more),○ (Total score of 10 panelists is 25 or more),Δ,++ (120%<),
"CC(C)CCCCCCCCCCCCCCC(=O)OCC(O)C1OC(=O)C2=C1OCCO2 (centres unmarked) [synthesis example 31, 6-O-isostearoyl-2,3-O-(1,2-ethanediyl) ascorbic acid]",⊚ (95% or more),⊚ (95% or more),⊚ (95% or more),⊚ (95% or more),Δ,○ (Total score of 10 panelists is 25 or more),○ (Total score of 10 panelists is 25 or more),○ (Total score of 10 panelists is 25 or more),++ (120%<),

# Now from value to compound, other results behind:
"Residual Rate After 2 weeks ([1]; pH7, stored at 50°C)","Residual Rate After 4 weeks ([1]; pH7, stored at 50°C)","Residual Rate After 2 weeks ([1]; pH9, stored at 50°C)","Residual Rate After 4 weeks ([1]; pH9, stored at 50°C)",Odor After 4 weeks [2],Compound,Coloration After 2 weeks [2],Odor After 2 weeks [2],Coloration After 4 weeks [2],Hyaluronic acid production-promoting effect [4],other results
⊚ (95% or more),⊚ (95% or more),⊚ (95% or more),⊚ (95% or more),Δ,"CCCCCCCCCCCCCCCC(=O)OCC(OC(=O)CCCCCCCCCCCCCCC)C1OC(=O)C2=C1OCCCO2 (centres unmarked) [Synthesis Example 27, 5,6-O-dipalmitoyl-2,3-O-(1,3-propanediyl) ascorbic acid]",○ (Total score of 10 panelists is 25 or more),○ (Total score of 10 panelists is 25 or more),Δ,++ (120%<),Collagen production-promoting effect [3]: ++ (140%<)
⊚ (95% or more),⊚ (95% or more),⊚ (95% or more),⊚ (95% or more),Δ,"CCCCCCCCCCCCCCCC(=O)OCC(OC(=O)CCCCCCCCCCCCCCC)C1OC(=O)C2=C1OCCCCO2 (centres unmarked) [synthetic example 16, 5,6-O-dipalmitoyl-2,3-O-(1,4-butanediyl) ascorbic acid]",○ (Total score of 10 panelists is 25 or more),○ (Total score of 10 panelists is 25 or more),○ (Total score of 10 panelists is 25 or more),++ (120%<),
⊚ (95% or more),⊚ (95% or more),⊚ (95% or more),⊚ (95% or more),Δ,"CC(C)CCCCCCCCCCCCCCC(=O)OC[C@H](OC(=O)CCCCCCCCCCCCCCC(C)C)[C@H]1OC(=O)C2=C1OCCCCO2 [synthesis example 18, 5,6-O-diisostearoyl-2,3-O-(1,4-butanediyl) ascorbic acid]",○ (Total score of 10 panelists is 25 or more),○ (Total score of 10 panelists is 25 or more),○ (Total score of 10 panelists is 25 or more),++ (120%<),
⊚ (95% or more),⊚ (95% or more),⊚ (95% or more),⊚ (95% or more),Δ,"CC(C)CCCCCCCCCCCCCCC(=O)OCC(O)C1OC(=O)C2=C1OCCCO2 (centres unmarked) [synthetic example 28, 6-O-isostearoyl-2,3-O-(1,3-propanediyl) ascorbic acid]",○ (Total score of 10 panelists is 25 or more),○ (Total score of 10 panelists is 25 or more),○ (Total score of 10 panelists is 25 or more),++ (120%<),
